Measured values reported in ChEMBL document CHEMBL3526135, “Induction of xenobiotic receptors, transporters, and drug metabolizing enzymes by oxycodone” (Drug Metab Dispos, 2013).

Legend:
Type in all cases: ADME, organism-based
Set-up in all cases: dose 15 mg/kg, route intraperitoneal
[1] = tested on: Slc37a4; test: Effect on Slc37a4 mRNA expression in Sprague-Dawley rat liver at 15 mg/kg, ip administered twice daily every 12 hrs for 8 days by microarray analysis relative to control; details: read-out: FC
[2] = tested on: Rattus norvegicus; test: Effect on AhR mRNA expression in Sprague-Dawley rat liver at 15 mg/kg, ip administered twice daily every 12 hrs for 8 days by qRT-PCR analysis relative to control; details: in vivo
[3] = tested on: Slc2a2; test: Effect on Slc2a2 mRNA expression in Sprague-Dawley rat liver at 15 mg/kg, ip administered twice daily every 12 hrs for 8 days by microarray analysis relative to control; details: read-out: FC
[4] = tested on: Rattus norvegicus; test: Effect on Ces2 mRNA expression in Sprague-Dawley rat liver at 15 mg/kg, ip administered twice daily every 12 hrs for 8 days by qRT-PCR analysis relative to control; details: in vivo
[5] = tested on: Ces2; test: Effect on Ces2 mRNA expression in Sprague-Dawley rat liver at 15 mg/kg, ip administered twice daily every 12 hrs for 8 days by microarray analysis relative to control; details: read-out: FC
[6] = tested on: Slc25a15; test: Effect on Slc25a15 mRNA expression in Sprague-Dawley rat liver at 15 mg/kg, ip administered twice daily every 12 hrs for 8 days by microarray analysis relative to control; details: read-out: FC
[7] = tested on: Rattus norvegicus; test: Effect on CYP2d1 mRNA expression in Sprague-Dawley rat liver at 15 mg/kg, ip administered twice daily every 12 hrs for 8 days by qRT-PCR analysis relative to control; details: in vivo
[8] = tested on: CYP3A1; test: Upregulation of CYP3A1 protein expression in Sprague-Dawley rat liver microsomes at 15 mg/kg, ip administered twice daily every 12 hrs for 8 days by Western blot analysis relative to control; details: read-out: FC
[9] = tested on: Rattus norvegicus; test: Effect on CAR mRNA expression in Sprague-Dawley rat liver at 15 mg/kg, ip administered twice daily every 12 hrs for 8 days by qRT-PCR analysis relative to control; details: in vivo
[10] = tested on: Rattus norvegicus; test: Effect on Fkbp5 mRNA expression in Sprague-Dawley rat liver at 15 mg/kg, ip administered twice daily every 12 hrs for 8 days by qRT-PCR analysis relative to control; details: in vivo
[11] = tested on: Rattus norvegicus; test: Effect on Slco1a4 mRNA expression in Sprague-Dawley rat liver at 15 mg/kg, ip administered twice daily every 12 hrs for 8 days by qRT-PCR analysis relative to control; details: in vivo
[12] = tested on: Slc39a4; test: Effect on Slc39a4 mRNA expression in Sprague-Dawley rat liver at 15 mg/kg, ip administered twice daily every 12 hrs for 8 days by microarray analysis relative to control; details: read-out: FC
[13] = tested on: Rattus norvegicus; test: Effect on CYP2c13 mRNA expression in Sprague-Dawley rat liver at 15 mg/kg, ip administered twice daily every 12 hrs for 8 days by qRT-PCR analysis relative to control; details: in vivo
[14] = tested on: AhR; test: Effect on AhR mRNA expression in Sprague-Dawley rat liver at 15 mg/kg, ip administered twice daily every 12 hrs for 8 days by microarray analysis relative to control; details: read-out: FC
[15] = tested on: CYP27a1; test: Effect on CYP27a1 mRNA expression in Sprague-Dawley rat liver at 15 mg/kg, ip administered twice daily every 12 hrs for 8 days by microarray analysis relative to control; details: read-out: FC
[16] = tested on: Abcb4; test: Effect on Abcb4 mRNA expression in Sprague-Dawley rat liver at 15 mg/kg, ip administered twice daily every 12 hrs for 8 days by microarray analysis relative to control; details: read-out: FC
[17] = tested on: Abcg5; test: Effect on Abcg5 mRNA expression in Sprague-Dawley rat liver at 15 mg/kg, ip administered twice daily every 12 hrs for 8 days by microarray analysis relative to control; details: read-out: FC
[18] = tested on: Rattus norvegicus; test: Effect on Slc15a3 mRNA expression in Sprague-Dawley rat liver at 15 mg/kg, ip administered twice daily every 12 hrs for 8 days by qRT-PCR analysis relative to control; details: in vivo
[19] = tested on: Rattus norvegicus; test: Effect on CYP3a1 mRNA expression in Sprague-Dawley rat liver at 15 mg/kg, ip administered twice daily every 12 hrs for 8 days by qRT-PCR analysis relative to control; details: in vivo
[20] = tested on: Slc21a10; test: Effect on Slc21a10 mRNA expression in Sprague-Dawley rat liver at 15 mg/kg, ip administered twice daily every 12 hrs for 8 days by microarray analysis relative to control; details: read-out: FC
[21] = tested on: Por; test: Effect on Por mRNA expression in Sprague-Dawley rat liver at 15 mg/kg, ip administered twice daily every 12 hrs for 8 days by microarray analysis relative to control; details: read-out: FC

COc1ccc2c3c1O[C@H]1C(=O)CC[C@@]4(O)[C@@H](C2)N(C)CC[C@]314.Cl [OXYCODONE HYDROCHLORIDE]
fold induction at 8 days [1]: 2 | Activity [2]: Active | fold induction at 8 days [3]: 1.5 | Activity [4]: Active | fold induction at 8 days [5]: 2.8 | fold induction at 8 days [6]: 2.1 | Activity [7]: Active | fold induction at 8 days [8]: 12.2 | Activity [9]: Active | Activity [10]: Active | Activity [11]: Active | fold induction at 8 days [12]: 1.6 | Activity [13]: Active | fold induction at 8 days [14]: 2.3 | fold induction at 8 days [15]: 1.9 | fold induction at 8 days [16]: 1.5 | fold induction at 8 days [17]: 3.6 | Activity [18]: Active | Activity [19]: Active | fold induction at 8 days [20]: 1.5 | fold induction at 8 days [21]: 7
